Where two headings read alike, the source gives them in different places. Marks after values point to notes of the source that are not given here.
What was measured:
[1] = Determination of phenol pKa values (literature or spectral titration)
tKSI^D40N [2] = target: T1, tKSI^D40N (Comamonas testosteroni, UniProt P00947, D38N); design: species or system Commamonas testosteroni; details: for δ1, chemical shift of most downfield peak in complex / δ2, chemical shift of second downfield peak in complex: pH 7.2, −3 °C
T1 sequence (P00947 whole entry D38N, looked up): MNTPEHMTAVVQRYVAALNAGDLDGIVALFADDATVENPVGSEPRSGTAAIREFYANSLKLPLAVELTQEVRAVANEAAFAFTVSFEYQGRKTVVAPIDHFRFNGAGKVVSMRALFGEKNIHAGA

[3] = target: pKSI^D40N (ketosteroid isomerase) (Pseudomonas putida, UniProt P07445, D34C/D40N); test: biochemical; type: binding
Chain of pKSI^D40N (ketosteroid isomerase) (P07445 whole entry D34C/D40N): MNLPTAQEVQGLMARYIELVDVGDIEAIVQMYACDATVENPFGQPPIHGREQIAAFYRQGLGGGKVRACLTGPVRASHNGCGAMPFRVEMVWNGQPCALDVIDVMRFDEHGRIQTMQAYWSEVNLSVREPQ

[4] = target: tKSI^D40N (ketosteroid isomerase) (Comamonas testosteroni, UniProt P00947, D38N); test: biochemical; type: binding, Commamonas testosteroni
Chain of tKSI^D40N (ketosteroid isomerase) (P00947 whole entry D38N): as the sequence (P00947 whole entry D38N, looked up) above

pKSI^D40N = pKSI^D40N (Pseudomonas putida, UniProt P07445, D34C/D40N); type: binding; details: pH 7.2, 25 °C
Chain of pKSI^D40N (P07445 whole entry D34C/D40N): as the sequence (P07445 whole entry D34C/D40N) above
Description: Briefly, the affinity and enthalpy of binding of a high-affinity reference ligand (L ref) were first determined by direct titration of KSI ( Figure 14A) [ [147]]. […] Prior to ITC experiments, enzyme was dialyzed into buffer containing 10 mM HEPES (pH 7.2), 100 mM NaCl, 0.1 mM EDTA, 0.1 mM Tri(2-carboxyethyl)phosphine hydrochloride. All ligands were dissolved in the final dialysis buffer, and all samples were degassed under vacuum. ITC experiments were performed using a VP-ITC (MicroCal, Northampton, Massachusetts, United States) at 25 °C.
After background subtraction, the data were fit by nonlinear least squares regression using a displacement model, with the stoichiometry, association constant, and change of enthalpy of interaction of the weak ligand as the free variables, and the association constant and change of enthalpy of the tight ligand fixed based on the values obtained from direct titration [ [146]].

[5] = Enthalpies of ionization of phenols by titration with NaOH; type: physicochemical
Excerpt: The enthalpy of ionization of HEPES, used to correct for proton transfer to buffer, is 5.02 kcal/mol [ [149]].

[6] = from literature; cited from earlier work
tKSI^D40N [7] = target: T1, tKSI^D40N; details: read-out: apparent affinity, previous assay; pH 7; cited from earlier work
[8] = design: method as in earlier work; details: cited from earlier work
KSI = target: KSI; design: method as in PMID 7918439; details: less precise estimate; read-out: affinity of equilenin estimated by previous assays; cited from earlier work
[9] = spectral titration, 25 °C, ionic strength 100 mM
[10] = apparent affinity at pH 8 ([picture]), pH 8, errors in parenthesis are average deviations
[11] = Displacement assay, phenolate form
[12] = pH 8, errors in parenthesis are average deviations, read-out: apparent affinity at pH 8 ([picture])
[13] = Displacement assay, uncorrected for enzyme ionization enthalpy
[14] = solution with ionic strength 100 mM maintained with NaCl

In the case of `Oc1ccc(F)c(F)c1F` [2,3,4-F3], the pKa [1, 9] is reported as 7.7^b.

With `Oc1ccc(C(F)(F)F)cc1` [Phenol 4-CF3] the “δ1, chemical shift of most downfield peak in complex” value (from here on “δ1, chemical shift”) (tKSI^D40N [2]) was 16.4 ppm, the “δ2, chemical shift of second downfield peak in complex” value (from here on “δ2, chemical shift”) (tKSI^D40N [2]) was 15.9 ppm and the pKa [1, 9] was 8.9.

For `O=[N+]([O-])c1ccc(O)cc1` [Phenol 4-NO2, 4-nitrophenol], the “δ1, chemical shift” value (tKSI^D40N [2]) was 15.0 ppm, the “δ2, chemical shift” value (tKSI^D40N [2]) was 14.8 ppm and the Kd ([3]; apparent affinity of the phenol for the enzyme (Equation 3), pH 6.9) was 1.8 ± 0.2 µM. For the same molecule, the Kd ([3]; pH-independent affinity of the phenolate form for the protonated enzyme (Equation 4), converted from apparent affinity at pH 6.9) was 0.026 ± 0.002 µM.

In the case of `Oc1ccc(Cl)c(Cl)c1` [3,4-Cl2, 3,4-dichlorophenol], the “δ1, chemical shift” value (tKSI^D40N [2]) is reported as 16.4 ppm, the “δ2, chemical shift” value (tKSI^D40N [2]) is reported as 15.6 ppm and the pKa (physchem) is reported as 8.5.

In the case of `Oc1cccc(F)c1` [Phenol 3-F, 3-fluorophenol], the Kd [4] is reported as 110 µM, the Kd [3, 10] is reported as 41 µM and the “∆G of binding” value (pKSI^D40N; [11]) is reported as -11.10 (0.05) kcal/mol. For the same molecule, the “∆Hion (heat of ionization)” value ([5]; Ionic strength 0.1) was 6.29 (0.05).

In the case of `Oc1ccc(F)c(F)c1` [3,4-F2], the Kd [4, 12] is reported as 69 µM, the Kd [3, 12] is reported as 31 µM and the “∆G of binding” value (pKSI^D40N; [11]) is reported as -11.14 (0.01) kcal/mol. For the same molecule, the “∆Hrel (relative enthalpy of binding)” value (pKSI^D40N; [13]) was -8.53 (0.05) kcal/mol and the “∆Hion (heat of ionization)” value ([5]; Ionic strength 0.1) was 7.04 (0.06).

In the case of `Oc1cccc(F)c1F` [2,3-F2], the pKa [1, 9] is reported as 7.7^b.

Work on `Cc1cc(O)ccc1F` [Phenol 4-F-3-CH3, 4-Fluoro-3-methylphenol] yielded a pKa [1, 14] of 9.8.

In the case of `Oc1ccccc1F` [Phenol 2-F, 2-fluorophenol], the pKa [6] is given as 8.8.

For `Oc1cccc(Br)c1` [Phenol 3-Br], the “δ1, chemical shift” value (tKSI^D40N [2]) was 17.0 ppm and the “δ2, chemical shift” value (tKSI^D40N [2]) was 15.6 ppm.

In the case of `Oc1cccc(C(F)(F)F)c1` [Phenol 3-CF3], the “δ1, chemical shift” value (tKSI^D40N [2]) is reported as 17.0 ppm, the “δ2, chemical shift” value (tKSI^D40N [2]) is reported as 16.1 ppm and the pKa [1, 9] is reported as 8.7.

For `Oc1ccccc1` [Phenol, phenol], the Kd (tKSI^D40N [7]) is given as 61 ± 10 µM, the Kd [4, 10] is given as 410 µM and the Kd ([4]; apparent affinity, new assay, pH 7) is given as 430 ± 80 µM. The Kd [3, 10] was 135 µM, the “∆G of binding” value (pKSI^D40N; [11]) was -11.3 (0.1) kcal/mol and the “∆Hion Lit value” [8] was 6.1 (0.2).

In the case of `Oc1cccc(Cl)c1` [Phenol 3-Cl], the “δ1, chemical shift” value (tKSI^D40N [2]) is reported as 17.1 ppm and the “δ2, chemical shift” value (tKSI^D40N [2]) is reported as 15.6 ppm.

With `Oc1cc(F)cc(C(F)(F)F)c1` [Phenol 3-F-5-CF3, 3-fluoro-5-(trifluoromethyl)phenol] the “δ1, chemical shift” value (tKSI^D40N [2]) was 16.4 ppm, the “δ2, chemical shift” value (tKSI^D40N [2]) was 15.6 ppm and the pKa ([1]; solution of ionic strength 100 mM maintained with NaCl) was 8.2.

Work on `CC(C)c1cccc(O)c1` [Phenol 3-isopropyl, 3-isopropylphenol] yielded a pKa [1, 14] of 9.9.

In the case of `Oc1ccc(Cl)cc1` [Phenol 4-Cl, 4-chlorophenol], the Kd (tKSI^D40N [7]) is listed as 7.9 ± 1.3 µM and the Kd [4] is listed as 40 ± 7 µM.

For `C[C@]12CCc3c(ccc4cc(O)ccc34)[C@@H]1CCC2=O` [equilenin], the “chemical shift of the principal downfield peak upon binding” value (tKSI^D40N [2]; spectrum not shown) is given as 17.6 ppm, the Kd (KSI) is given as 0.0001 to 0.001 µM and the pKa ([1]; solution of 100 mM ionic strength maintained with NaCl) is given as 9.7.

For `Oc1cc(F)c(F)cc1F` [2,4,5-F3, 2,4,5-trifluorophenol], the pKa [1, 14] was 7.7.

For `Oc1cc(F)ccc1F` [2,5-F2], the pKa [1, 9] was 7.7^b.

In the case of `Cc1ccc(O)cc1` [Phenol 4-methyl, 4-methylphenol], the pKa [6] is given as 10.2.

For `CC(C)c1ccc(O)cc1` [Phenol 4-isoproyl, 4-isopropylphenol], the pKa (physchem) was 10.

In the case of `Oc1cc(F)c(F)c(F)c1` [3,4,5-F3, 3,4,5-trifluorophenol], the “δ1, chemical shift” value (tKSI^D40N [2]) is reported as 16.3 ppm, the “δ2, chemical shift” value (tKSI^D40N [2]) is reported as 14.9 ppm and the Kd [4] is reported as 17 µM. For the same molecule, the Kd [3, 10] was 6.1 µM, the “∆G of binding” value (pKSI^D40N; Direct Titration) was -11.51 (0.04) kcal/mol and the “∆Hrel (relative enthalpy of binding)” value (pKSI^D40N; Direct Titration) was -6.0 (0.1) kcal/mol. The “∆G of binding” value (pKSI^D40N; [11]) was -11.1 (0.1) kcal/mol, the “∆Hrel (relative enthalpy of binding)” value (pKSI^D40N; [13]) was -5.8 (0.3) kcal/mol and the “∆Hion (heat of ionization)” value ([5]; Ionic strength 0.1) was 5.62 (0.06). It also gave a pKa [1] of 8.2 and a pKa [1, 14] of 8.2.

In the case of `CC(=O)c1ccc(O)cc1` [Phenol 4-acetyl, 4-Acetylphenol], the “δ1, chemical shift” value (tKSI^D40N [2]) is listed as 16.0 ppm, the “δ2, chemical shift” value (tKSI^D40N [2]) is listed as 15.4 ppm and the pKa [6] is listed as 8.1.

In the case of `O=[N+]([O-])c1ccc(O)cc1F` [Phenol 3-F-4-NO2, 3-fluoro-4-nitrophenol], the “δ1, chemical shift” value (tKSI^D40N [2]) is reported as 14.4 ppm, the “δ2, chemical shift” value (tKSI^D40N [2]) is reported as 14.3 ppm and the pKa (physchem) is reported as 6.1.

In the case of `Oc1ccc(F)cc1F` [2,4-F2], the pKa [1, 9] is reported as 8.6^b.

In the case of `Oc1cc(F)cc(F)c1` [3,5-F2], the Kd [4, 12] is reported as 20 µM, the Kd [3, 12] is reported as 8.4 µM and the “∆G of binding” value (pKSI^D40N; Direct Titration) is reported as -11.23 (0.03) kcal/mol. The “∆Hrel (relative enthalpy of binding)” value (pKSI^D40N; Direct Titration) was -6.9 (0.1) kcal/mol, the “∆G of binding” value (pKSI^D40N; [11]) was -11.1 (0.2) kcal/mol and the “∆Hrel (relative enthalpy of binding)” value (pKSI^D40N; [13]) was -6.7 (0.8) kcal/mol. For the same molecule, the “∆Hion (heat of ionization)” value ([5]; Ionic strength 0.1) was 5.73 (0.07).

In the case of `O=[N+]([O-])c1ccc(O)cc1C(F)(F)F` [Phenol 3-CF3-4-NO2], the “δ1, chemical shift” value (tKSI^D40N [2]) is reported as 14.9 ppm, the “δ2, chemical shift” value (tKSI^D40N [2]) is reported as 14.5 ppm and the pKa [1, 9] is reported as 6.3.

With `Oc1ccc(I)cc1` [Phenol 4-I] the “δ1, chemical shift” value (tKSI^D40N [2]) was 16.7 ppm.

In the case of `Oc1cc(Cl)cc(Cl)c1` [3,5-Cl2], the “δ1, chemical shift” value (tKSI^D40N [2]) is reported as 16.6 ppm, the “δ2, chemical shift” value (tKSI^D40N [2]) is reported as 14.8 ppm and the pKa [1, 9] is reported as 8.1.

In the case of `CCc1cccc(O)c1` [Phenol 3-ethyl, 3-ethylphenol], the pKa [6] is given as 9.9.

In the case of `N#Cc1ccc(O)cc1` [Phenol 4-CN, 4-cyanophenol], the “δ1, chemical shift” value (tKSI^D40N [2]) is reported as 15.6 ppm and the Kd ([3]; Kd from fit of pH dependence of binding to Equation 4, phenol pKa fixed at 8.0, enzyme pKa 5.5) is reported as 0.016 ± 0.002 µM.

With `Oc1cc(F)cc(F)c1F` [2,3,5-F3, 2,3,5-trifluorophenol] the pKa [1, 14] was 7.1.

For `O=[N+]([O-])c1cc(O)ccc1Cl` [Phenol 3-NO2-4-Cl], the “δ1, chemical shift” value (tKSI^D40N [2]) was 15.8 ppm, the “δ2, chemical shift” value (tKSI^D40N [2]) was 15.4 ppm and the pKa [1, 9] was 7.8.

For `Oc1ccc(F)cc1` [Phenol 4-F], the Kd [4, 12] was 320 µM, the Kd [3, 12] was 133 µM and the “∆G of binding” value (pKSI^D40N; [11]) was -11.34 (0.02) kcal/mol. The “∆Hrel (relative enthalpy of binding)” value (pKSI^D40N; [13]) was -9.8 (0.1) kcal/mol, the “∆Hion Lit value” [8] was 5.93 (0.05) and the “∆Hion (heat of ionization)” value ([5]; Ionic strength 0.0) was 5.97 (0.03). The “∆Hion (heat of ionization)” value ([5]; Ionic strength 0.1) was 6.21 (0.06).

With `N#Cc1cccc(O)c1` [Phenol 3-CN] the “δ1, chemical shift” value (tKSI^D40N [2]) was 16.4 ppm and the “δ2, chemical shift” value (tKSI^D40N [2]) was 15.6 ppm.

With `O=[N+]([O-])c1cccc(O)c1` [Phenol 3-NO2] the “δ1, chemical shift” value (tKSI^D40N [2]) was 16.4 ppm and the “δ2, chemical shift” value (tKSI^D40N [2]) was 15.5 ppm.

`Oc1c(F)c(F)c(F)c(F)c1F` [pentafluorophenol] gave a pKa (physchem) of 5.7.

For `Oc1cccc(I)c1` [Phenol 3-I, 3-iodophenol], the “δ1, chemical shift” value (tKSI^D40N [2]) is given as 16.8 ppm, the “δ2, chemical shift” value (tKSI^D40N [2]) is given as 15.9 ppm and the pKa [6] is given as 9.2.

Reference: PMC1413570, “Testing Electrostatic Complementarity in Enzyme Catalysis: Hydrogen Bonding in the Ketosteroid Isomerase Oxyanion Hole” (PLoS Biology, 2006)
